{"source": "patent US6559305B1", "about": "“Linezolid—crystal form II” (Pharmacia & Upjohn Company, priority 2000, dated 2003)", "experiment": "relative stability of linezolid crystal forms", "format": "physicochemical", "conditions": "temperature below about 85° (degrees Centigrade)"}
{"smiles": "CC(=O)NC[C@H]1CN(c2ccc(N3CCOCC3)c(F)c2)C(=O)O1", "note": "[Crystal Form II, (S)-N-[[3-[3-fluoro-4-(4-morpholinyl)phenyl]-2-oxo-5-oxazolidinyl]methyl]acetamide]", "values": [{"measurement": "stability of the crystal form relative to other solid forms (e.g. Form I)", "result": "most stable form below about 85°"}]}
